Results taken from patent publication EP2931723B1, “NEW BICYCLIC COMPOUNDS AND THEIR USE AS ANTIBACTERIAL AGENTS AND -LACTAMASE INHIBITORS” (Fedora Pharmaceuticals Inc., priority 2012, dated 2014).

Experiments:
[1] = test system: metallo β-lactamase producing bacteria; test: MIC in combination with various antibiotics against metallo β-lactamase producing bacteria (Tables 10-12); assay type: cell-based; conditions: Enterobacter cloacae, agent alone
Experimental: In the Tables 10 - 12, compounds herein disclosed were tested in combination with various antibiotics against metallo β-lactamase producing bacteria.

A. baumanii JMI 2659 = test: MIC, antibacterial and synergistic activity; assay type: cell-based; conditions: A. baumanii JMI 2659 (Ges-14 (Cpase))
E. coli JMI 10770 = test: MIC, antibacterial and synergistic activity; assay type: cell-based; conditions: Escherichia coli, JMI10770; E. coli JMI 10770 (CTX-M15 (Hyper ESBL)); substance alone
K. pneumo JMI 2673 [2] = test: MIC, antibacterial and synergistic activity; assay type: cell-based; conditions: K. pneumo JMI 2673 (CTX-M14 (ESBL)); substance alone
CMY-2 = CMY-2 (Klebsiella pneumoniae, UniProt Q48434); test: β-lactamase inhibitory activity, spectrophotometric nitrocefin assay; assay type: biochemical; conditions: nitrocefin as substrate
Sequence of CMY-2 (Q48434 21-381, species assumed): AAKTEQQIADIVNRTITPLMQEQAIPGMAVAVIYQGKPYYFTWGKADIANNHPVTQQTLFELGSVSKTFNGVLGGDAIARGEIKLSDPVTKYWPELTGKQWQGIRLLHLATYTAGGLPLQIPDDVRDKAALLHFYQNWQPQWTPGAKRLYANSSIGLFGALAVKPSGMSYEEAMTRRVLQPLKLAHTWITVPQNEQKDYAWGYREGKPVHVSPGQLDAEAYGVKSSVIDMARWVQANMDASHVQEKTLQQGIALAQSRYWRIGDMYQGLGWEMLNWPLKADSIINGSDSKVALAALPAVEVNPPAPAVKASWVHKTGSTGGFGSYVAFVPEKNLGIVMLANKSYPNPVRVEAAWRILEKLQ
Experimental: (§1) The inhibitory activities of compounds herein disclosed against various enzymes were measured by spectrophotometric assay using […] and using nitrocefin as a substrate [J. Antimicrob. Chemother., 28, pp 775-776 (1991)] . The concentration of inhibitor (IC50) which inhibits by 50% the reaction of hydrolysis of nitrocefin by the enzyme is determined. […] Table 13 Test for β-lactamase Inhibitory Activity

CTX-M-9 = CTX-M-9 (Escherichia coli, UniProt Q9L5C8); test: as above; assay type: biochemical; conditions: nitrocefin as substrate
Sequence of CTX-M-9 (Q9L5C8 29-291): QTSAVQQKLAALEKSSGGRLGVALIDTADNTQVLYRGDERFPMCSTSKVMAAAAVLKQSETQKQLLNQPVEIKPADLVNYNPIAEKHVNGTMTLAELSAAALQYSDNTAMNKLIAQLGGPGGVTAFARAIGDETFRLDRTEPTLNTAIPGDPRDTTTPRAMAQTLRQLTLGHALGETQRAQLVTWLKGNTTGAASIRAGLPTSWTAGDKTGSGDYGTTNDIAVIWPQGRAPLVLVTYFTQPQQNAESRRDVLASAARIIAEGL
Experimental: as §1

KPC-2 = KPC-2 (Klebsiella pneumoniae, UniProt Q9F663); test: as above; assay type: biochemical; conditions: nitrocefin as substrate
Sequence of KPC-2 (Q9F663 25-293, looked up, species assumed): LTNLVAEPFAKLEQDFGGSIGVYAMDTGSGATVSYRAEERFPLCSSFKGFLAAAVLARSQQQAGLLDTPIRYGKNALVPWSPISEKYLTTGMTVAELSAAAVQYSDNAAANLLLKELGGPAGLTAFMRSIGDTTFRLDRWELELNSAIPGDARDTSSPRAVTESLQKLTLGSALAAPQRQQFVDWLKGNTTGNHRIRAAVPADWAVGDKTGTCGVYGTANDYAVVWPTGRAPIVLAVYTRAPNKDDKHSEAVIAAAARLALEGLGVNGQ
Experimental: as §1

TEM-1 = TEM-1 (Escherichia coli, UniProt P62593); test: as above; assay type: biochemical; conditions: nitrocefin as substrate
Sequence of TEM-1 (P62593 24-286 limits assumed): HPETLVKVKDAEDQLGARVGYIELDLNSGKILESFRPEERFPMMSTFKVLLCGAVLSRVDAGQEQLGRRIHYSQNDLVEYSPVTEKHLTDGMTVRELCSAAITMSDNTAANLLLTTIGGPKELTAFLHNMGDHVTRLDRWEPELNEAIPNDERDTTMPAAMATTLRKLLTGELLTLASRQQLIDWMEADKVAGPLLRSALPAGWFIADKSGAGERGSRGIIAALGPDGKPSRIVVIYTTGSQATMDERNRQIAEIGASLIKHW
Experimental: as §1

K. pneumo JMI 4088 = test: MIC, antibacterial and synergistic activity; assay type: cell-based; conditions: K. pneumo JMI 4088 (KPC-3 (Cpase))
Method in brief: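 The compound was tested for synergy by combining it with antibiotics and measuring minimum inhibitory concentrations against β-lactamase producing bacteria. The inhibitor was present at a fixed concentration of 4 µg/mL together with the partner antibiotic, and MIC values were recorded.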

K. pneumo JMI 2673 [3] = test: MIC, antibacterial and synergistic activity; assay type: cell-based; conditions: K. pneumo JMI 2673 (CTX-M14 (ESBL))
Method in brief: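 Antibacterial synergy was assessed by testing a β-lactamase inhibitor compound in combination with antibiotics. The inhibitor was held at a fixed concentration of 4 µg/mL, and the minimum inhibitory concentration of the partner antibiotic was determined in its presence.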

P. aerug JMI 2686 = test: MIC, antibacterial and synergistic activity; assay type: cell-based; conditions: P. aerug JMI 2686 (KPC-2 (Cpase))
Method in brief: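 This antibacterial synergy assay measured the minimum inhibitory concentration of antibiotics combined with the disclosed inhibitor compounds. The inhibitor was held at 4 µg/mL throughout. The aim was to see whether the added compound strengthened the antibiotic's action against the tested bacteria.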

K. pneumo JMI 2674 = test: MIC, antibacterial and synergistic activity; assay type: cell-based; conditions: K. pneumo JMI 2674 (CTX-M15 (ESBL))
Method in brief: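 Antibacterial activity was assessed as minimum inhibitory concentrations against a β-lactamase-producing bacterial strain. Each test inhibitor was combined with an antibiotic, with the inhibitor held at a fixed 4 µg/mL, to determine whether it acted synergistically and restored the antibiotic's effect against the resistant organism.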

E. cloacae JMI 36 = test: MIC, antibacterial and synergistic activity; assay type: cell-based; conditions: E. cloacae JMI 36 (P99)
K.pneumo JMI 4109 = test: MIC, antibacterial and synergistic activity; assay type: cell-based; conditions: K.pneumo JMI 4109 (SHV-1, SHV-12); substance alone
[4] = Aztreonam + inhibitor at 4 µg/mL
[5] = Ceftazidime + inhibitor at 4 µg/mL
[6] = Meropenem + inhibitor at 4 µg/mL

CC(=O)NNC(=O)[C@@H]1CC[C@@H]2CN1C(=O)N2OS(=O)(=O)O [Ex. 5, (2S,5R)-N'-acetyl-7-oxo-6-(sulfooxy)-1,6-diazabicyclo[3.2.1]octane-2-carbohydrazide]
MIC ([1]; Isolate No 4, Enzyme VIM-6): 64 | MIC ([1]; Isolate No 10, Enzyme IMP-26): 64 | MIC Aztreonam + inhibitor (A. baumanii JMI 2659; [4]): >4 µg/mL | MIC Ceftazidime + inhibitor (A. baumanii JMI 2659; [5]): >16 µg/mL | MIC Meropenem + inhibitor (A. baumanii JMI 2659; [6]): >2 µg/mL | MIC (A. baumanii JMI 2659; Acinetobacter baumannii, JMI2659, substance alone, read-out: MIC): > 16 µg/mL | MIC (E. coli JMI 10770): 8 µg/mL | MIC (K. pneumo JMI 2673 [2]): > 16 µg/mL | IC50 (CMY-2): 0.008 ± 0.001 µM | IC50 (CTX-M-9): 0.327 ± 0.02 µM | IC50 (KPC-2): 0.091 ± 0.009 µM | IC50 (TEM-1): 0.052 ± 0.004 µM | MIC Aztreonam + inhibitor (K. pneumo JMI 4088; [4]): 0.25 µg/mL | MIC Ceftazidime + inhibitor (K. pneumo JMI 4088; [5]): ≤0.25 µg/mL | MIC Meropenem + inhibitor (K. pneumo JMI 4088; [6]): 0.125 µg/mL | MIC Aztreonam + inhibitor (K. pneumo JMI 2673 [3]; [4]): ≤0.062 µg/mL | MIC Ceftazidime + inhibitor (K. pneumo JMI 2673 [3]; [5]): ≤0.25 µg/mL | MIC Meropenem + inhibitor (K. pneumo JMI 2673 [3]; [6]): ≤0.031 µg/mL | MIC Aztreonam + inhibitor (P. aerug JMI 2686; [4]): >4 µg/mL | MIC Ceftazidime + inhibitor (P. aerug JMI 2686; [5]): >16 µg/mL | MIC Meropenem + inhibitor (P. aerug JMI 2686; [6]): >2 µg/mL | MIC Aztreonam + inhibitor (K. pneumo JMI 2674; [4]): 0.125 µg/mL | MIC Ceftazidime + inhibitor (K. pneumo JMI 2674; [5]): ≤0.25 µg/mL | MIC Meropenem + inhibitor (K. pneumo JMI 2674; [6]): 0.062 µg/mL | MIC Aztreonam + inhibitor (E. cloacae JMI 36; [4]): >4 µg/mL | MIC Ceftazidime + inhibitor (E. cloacae JMI 36; [5]): 16 µg/mL | MIC Meropenem + inhibitor (E. cloacae JMI 36; [6]): 0.125 µg/mL | MIC (E. cloacae JMI 36; Enterobacter cloacae, JMI36, substance alone, read-out: MIC): > 16 µg/mL | MIC (K.pneumo JMI 4109): > 16 µg/mL
